# Experimental data published in PubChem BioAssay (NCI).
#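 Cultured in 96-well plates, cells were exposed to test compound for 48 hours across five concentrations. GI50 marks 50% less growth. Definition used: TGI = concentration required for complete inhibition of growth.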
# What was measured:
# Assay in all cases: NCI-60 cell line screen, 48 h
# [1] = tested on: 786-0 renal
# [2] = tested on: A498 renal
# [3] = tested on: CCRF-CEM leukemia
# [4] = tested on: KM12 colon
# [5] = tested on: MALME-3M melanoma
# [6] = tested on: NCI-H23 lung
# [7] = tested on: OVCAR-8 ovarian
# [8] = tested on: RPMI-8226 leukemia
# [9] = tested on: SF-295 CNS
# [10] = tested on: SNB-19 CNS
Compound,TGI [1] [µM],TGI [2] [µM],TGI [3] [µM],TGI [4] [µM],TGI [5] [µM],TGI [6] [µM],TGI [7] [µM],TGI [8] [µM],TGI [9] [µM],TGI [10] [µM],GI50 [1] [µM],GI50 [2] [µM],GI50 [3] [µM],GI50 [4] [µM],GI50 [5] [µM],GI50 [6] [µM],GI50 [7] [µM],GI50 [8] [µM],GI50 [9] [µM],GI50 [10] [µM]
Nc1ccc(CCN2CCN(c3cccc(C(F)(F)F)c3)CC2)cc1,> 100,> 100,> 100,> 100,> 100,> 100,> 100,> 100,> 100,> 100,–,–,–,–,–,–,–,–,–,–
OCc1ccc(N(Cc2ccc(F)cc2)C2CCC2)cc1Cl,24.3,0.156,34.6,28.7,31.3,25.4,29.1,25.4,12.9,27.5,10.3,0.0332,14.9,14.5,16.2,9.41,13.4,3.03,0.437,13.8
O=C(Nc1cccc(NS(=O)(=O)c2ccc(F)cc2)c1)c1ccc(-c2ccccc2)cc1,> 100,25.9,> 100,15.6,10.2,10.5,17.5,11.4,11.8,> 100,3.69,4.69,3.46,3.46,2.81,2.83,2.88,2.31,2.34,3.4
CCC12CCC(O)C1N(C)CCC2Sc1ccccc1 (centres undefined),> 100,> 100,> 100,> 100,> 100,> 100,> 100,> 100,> 100,> 100,–,–,–,–,–,–,–,–,–,–
O=C1c2cccnc2-c2nc(-c3ccccn3)cc3c2c1nc1ccccc13,0.26,1.5,–,3.17,1.72,1.78,0.402,1.03,1.7,2.65,0.0825,0.481,0.0619,0.426,0.377,0.374,0.15,0.253,0.423,1.13
O=c1oc2ccccc2cc1-c1ccc([N+](=O)[O-])cc1,> 100,> 100,> 100,> 100,> 100,> 100,> 100,> 100,> 100,> 75.6,–,–,–,–,–,–,–,–,–,–
COC(=O)[C@H](C)[C@H]1CC[C@@](C)([C@H]2CC3C(C)(C)[C@H]4CCC(C)=C[C@H]4C[C@@]3(C)O2)OO1 (some centres undefined),20.2,24.1,16.3,25.7,28.3,23.6,26.2,18.4,28.4,28.2,–,–,–,–,–,–,–,–,–,–
Cc1ccc2c(/C=C/C(=O)c3cc(CN4CCOCC4)c(O)c4nc(C)ccc34)cc(CN3CCOCC3)c(O)c2n1,5.45,3.37,1.12,2.24,10.6,4.5,> 100,3.86,10.3,17.6,1.4,1.8,0.322,0.558,2,1.13,0.588,0.489,0.765,0.603
